Measurements as given in patent publication US20250154472A1, “Culture Medium for Expanding Breast Epithelial Stem Cells” (Koninklijke Nederlandse Akademie Van Wetenschappen, priority 2014, published 2025).

Legend:
Type in all cases: cell-based, human
[1] = tested on: mammary tumor organoid line W859T; test: Low throughput drug screen, cell viability (CellTiter-Glo 2.0), W859T; conditions: 7 days, 1 nM-30 μM, 96-well
Experimental: (§1) Organoids were photographed every 3-4 days (FIG. 8) and cell viability measured at day 7 using the CellTiter-Glo 2.0 assay (G9241, Promega) (FIG. 9).
(§2) All three organoid lines respond to Iressa at concentrations ˜10 μM indicating a dependence on EGFR signaling. […] Mammary tumor organoids are suitable for cell viability based low throughput drug screens in a 96-well format. We are currently testing the assay in a 384-well plate format which has been successfully established for colon cancer organoids.

[2] = tested on: mammary tumor organoid line W854T; test: Low throughput drug screen, cell viability (CellTiter-Glo 2.0), W854T; conditions: 7 days, 1 nM-30 μM, 96-well
Experimental: as §1, §2

[3] = tested on: mammary tumor organoid line W855T; test: Low throughput drug screen, cell viability (CellTiter-Glo 2.0), W855T; conditions: 7 days
Experimental: as §1, §2

[4] = tested on: mammary tumor organoid line W854T; test: Organoid growth in medium containing Nutlin-3; conditions: 5 μM Nutlin-3

| Structure (SMILES) | concentration at which organoids respond (growth/viability) [1] | concentration at which organoids respond (growth/viability) [2] | concentration at which organoids respond (growth/viability) ([3]; 1 nM-30 μM, 96-well) | growth inhibition at concentrations up 30 μM [3] | growth in medium containing the p53 stabilizer [4] |
| --- | --- | --- | --- | --- | --- |
| COc1cc2ncnc(Nc3ccc(F)c(Cl)c3)c2cc1OCCCN1CCOCC1 [Iressa] | ~10 µM | ~10 µM | ~10 µM |  |  |
| COc1ccc(C2=N[C@@H](c3ccc(Cl)cc3)[C@@H](c3ccc(Cl)cc3)N2C(=O)N2CCNC(=O)C2)c(OC(C)C)c1 [Nutlin-3] | > 30 µM | > 30 µM |  | perhaps the exception | readily grew |
